Data as given in paper PMC3001897, “High-Throughput Chemical Screen Identifies a Novel Potent Modulator of Cellular Circadian Rhythms and Reveals CKIα as a Clock Regulatory Kinase” (PLoS Biology, 2010).

Tests used:
[1] = system: CKIα- and CKIδ-dependent mobility-shift of PER1; assay: PER1 electrophoretic mobility-shift (phosphorylation) in HEK293T cells; format: cell-based; conditions: 10 or 20 µM, 24 h
Method: HEK293T cells (1.25×10^6 cells) were reverse transfected on 6-well plates by Lipofectamine 2000 with 1 µg each of expression vectors for C-terminally 3XFlag-tagged clock protein (in p3XFLAG-CMV-14, Sigma) and N-terminally HA-tagged kinase (in p3XFLAG-CMV-14). For ERK2, 0.05 µg of expression vector with 0.95 µg of empty vector was used because of its efficient expression. After 24 h, the cells were collected with ice-cold PBS and suspended in 100 µl of incubation buffer [50 mM Tris, 50 mM NaCl, 2 mM EDTA, 10% glycerol, 1 mM DTT, Complete Protease Inhibitor Cocktail (Roche), Phosphatase Inhibitor Cocktail 1 and 2 (Sigma), pH 8.0]. The mixture was supplemented with NP-40 (final 1%) and incubated on ice for 15 min, followed by centrifugation (16,000×g) at 4°C for 10 min. […] The bound proteins were eluted with SDS sample buffer, separated by SDS-PAGE (4%–12% gradient gel), and analyzed by Western blotting with anti-Flag antibody (Sigma, F1804) or anti-HA antibody conjugated with HRP (Roche, 12013819001). For the analysis of PER1 electrophoretic mobility-shift, the cell extracts were separated by SDS-PAGE (3%–8% gradient gel, Invitrogen) and analyzed by Western blotting with anti-Flag antibody or anti-α-tubulin antibody (Santa Cruz Biotechnology, sc-32293). Protein concentration of each sample was measured by the Lowry method using DC protein assay (BioRad).

[2] = system: Bmal1-dLuc U2OS cells; assay: Time-course assay of endogenous PER1 abundance with parallel luminescence rhythms; format: cell-based, human; conditions: for Period of Bmal1-dLuc luminescence rhythm: control 0 µM 26 h; for Time of second trough of Bmal1-dLuc luminescence rhythm: control 0 µM 34 h; for Time of second peak of PER1 protein rhythm: control 0 µM 40 h
Method: Bmal1-dLuc U2OS cells were plated onto 6-well-plates (2.0×10^5 cells/well). After 2 d, the medium was replaced with 2 ml explant medium containing 0, 3, or 9 µM longdaysin. The plate was covered with film and kept at 36°C. At indicated time points, the cells were collected with ice-cold PBS and stored at −80°C. Then the cell pellets were homogenized in SDS sample buffer and analyzed by Western blotting with anti-PER1 antibody (Cosmo Bio, KAL-KI044) or anti-α-tubulin antibody. In parallel, luminescence rhythms of the cells plated on 35 mm dishes were recorded with LumiCycle luminometer at 36°C.

## CC(C)n1cnc2c(NCc3cccc(C(F)(F)F)c3)ncnc21 [Longdaysin, 9-isopropyl-N-(3-(trifluoromethyl)benzyl)-9H-purin-6-amine]
[1]
  Effect on CKIα- and CKIδ-dependent mobility-shift of PER1: reduced the CKIα- and CKIδ-dependent mobility-shift of PER1
[2]; 3 µM
  Period of Bmal1-dLuc luminescence rhythm: 32 h
  Time of second trough of Bmal1-dLuc luminescence rhythm: 38 h
  Time of second peak of PER1 protein rhythm: 40 to 46 h
[2]; 9 µM
  Period of Bmal1-dLuc luminescence rhythm: 38 h
  Time of second trough of Bmal1-dLuc luminescence rhythm: 46 h
  Time of second peak of PER1 protein rhythm: 52 h
[2]; 3 or 9 µM versus 0 µM control
  Overall protein amount of endogenous PER1: strongly up-regulated
[2]; 3 or 9 µM, RT-qPCR
  PER1 mRNA level: without affecting its mRNA level
